Experimental data: PMC3559867, “Metabolites of Ginger Component [6]-Shogaol Remain Bioactive in Cancer Cells and Have Low Toxicity in Normal Cells: Chemical Synthesis and Biological Evaluation” (PLoS ONE, 2013)

What was measured:
[1] = test system: IMR-90 human normal lung cells; experiment: MTT cytotoxicity, normal lung cells IMR-90; assay type: cell-based; conditions: 24 h treatment, toxicity to normal cells
Experimental: (§1) Cell growth inhibition was determined by a MTT colorimetric assay. Human colon cancer cells HCT-116, human lung cancer cells H-1299, human colon fibroblast cells CCD-18Co, and human lung fibroblast cells IMR-90 were plated in 96-well microtiter plates with 3000 cells/well and allowed to attach for 24 h at 37°C. […] After the cells were cultured for 24 h, the medium was aspirated and cells were treated with 200 µL fresh medium containing 2.41 mmol/L MTT. […] The reading reflected the number of viable cells and was expressed as a percentage of viable cells in the control. Both HCT-116 and H-1299 cells were cultured in McCoy’s 5A medium. CCD-18Co and IMR-90 cells were cultured in Eagle’s modified essential medium (EMEM). All of the above media were supplemented with 10% fetal bovine serum, 1% penicillin/streptomycin, and 1% glutamine, and the cells were kept in a 37°C incubator with 95% humidity and 5% CO2.

[2] = test system: H-1299 human lung cancer cells; experiment: MTT growth inhibition, H-1299; assay type: cell-based; conditions: 24 h treatment, 0 to 80 µM
Experimental: as §1

[3] = test system: HCT-116 human colon cancer cells; experiment: MTT growth inhibition, HCT-116; assay type: cell-based; conditions: 24 h treatment, 0 to 80 µM
Experimental: as §1

[4] = test system: CCD-18Co human normal fibroblast colon cells; experiment: MTT cytotoxicity, normal colon cells CCD-18Co; assay type: cell-based; conditions: 24 h treatment, toxicity to normal cells
Experimental: as §1

H-1299 cells = experiment: TUNEL apoptosis assay, H-1299; assay type: cell-based, human; conditions: H-1299, 24 hours of incubation, 20 or 40 µM, versus DMSO; M2 not significant at 20 µM
Experimental: (§2) HCT-116 and H1299 cells were seeded in 6-well plates at 1.10^5 cells/well and incubated at 37°C in 5% CO2 incubator. After 24 hours, fresh media supplemented with DMSO (control), [6]-shogaol, M2, M6, or M13 metabolites (20 µM or 40 µM) were added to the wells. After 6 or 24 hours incubation at 37°C in 5% CO2 incubator, cells were washed and pre-treated for 15 min at room temperature with a solution of 20 µg/ml proteinase K. Cells were then washed twice with phosphate buffer saline pH 7.4 (PBS) and fixed for 10 min at room temperature using 10% neutral formaldehyde solution. After 2 washes in ddH2O, cells were resuspended in 100 µL ddH2O and applied on silanized microscope slides. Slides were incubated overnight at 37°C, and washed twice with PBS. TUNEL assay was then carried out according to the manufacturer’s protocol. Cells were observed under 400X power using a Zeiss microscope A1 (Thornwood, NY). 10 fields per slide were evaluated, and TUNEL+ cells (with brown coloration in the nucleus) were expressed as a percentage of the total number of cells contained in a field.

HCT-116 cells = experiment: TUNEL apoptosis assay, HCT-116; assay type: cell-based, human; conditions: 20 or 40 µM, versus DMSO
Experimental: as §2

[5] = HCT-116, 24 hours of incubation

Row | Structure (SMILES) | IC50 [1] | IC50 ([2]; Homo sapiens, NCI-H1299, 24 h) | IC50 [3] | IC50 [4] | induction of apoptosis (TUNEL positive cells) (H-1299 cells) | induction of apoptosis (TUNEL positive cells) (HCT-116 cells; HCT-116, 6 hours of incubation) | induction of apoptosis (TUNEL positive cells) (HCT-116 cells; [5]) | IC50 [2]
1 | CCCCCC(CC(O)CCc1ccc(O)c(OC)c1)SCC(N)C(=O)O (stereo not drawn) [M1, 5-cysteinyl-M6] | > 100 µM | > 100 µM | > 100 µM | > 100 µM |  |  |  | 
2 | CCCCCC(CC(=O)CCc1ccc(O)c(OC)c1)SCC(N)C(=O)O (stereo not drawn) [M2, 5-cysteinyl-[6]-shogaol] | 98.3 µM | 25.8 µM | 24.4 µM | 99.2 µM | Significant apoptosis | significantly higher levels of apoptosis | Significant apoptosis | 24.4 µM
3 | CCCCCC(CC(O)CCc1ccc(O)c(OC)c1)SCC(NC(C)=O)C(=O)O (stereo not drawn) [M4, 5-N-acetylcysteinyl-M6] | > 100 µM | > 100 µM | > 100 µM | > 100 µM |  |  |  | 
4 | CCCCCC(CC(=O)CCc1ccc(O)c(OC)c1)SC[C@H](NC(C)=O)C(=O)O (stereo partly drawn) [M5, 5-N-acetylcysteinyl-[6]-shogaol] | > 100 µM | 72.6 µM | 54.3 µM | > 100 µM |  |  |  | 54.3 µM
5 | CCCCCC=CC(O)CCc1ccc(O)c(OC)c1 (stereo not drawn) [M6, 1-(4'-hydroxy-3'-methoxyphenyl)-4-decen-3-ol] | > 100 µM | 61.3 µM | 68.8 µM | > 100 µM | did not display any apoptotic effect |  | did not display any apoptotic effect | 68.8 µM
6 | CCCCCC(CC(=O)CCc1ccc(O)c(OC)c1)OC (stereo not drawn) [M7, 5-methoxy-1-(4'-hydroxy-3'-methoxyphenyl)-decan-3-one] | > 100 µM | > 100 µM | > 100 µM | > 100 µM |  |  |  | 
7 | CCCCCCCC(=O)CCc1ccc(O)c(O)c1 [M8, 1-(3',4'-dihydroxyphenyl)-decan-3-one] | > 100 µM | > 100 µM | 58.8 µM | > 100 µM |  |  |  | 
8 | CCCCCCCC(O)CCc1ccc(O)c(OC)c1 (stereo not drawn) [M9, 1-(4'-hydroxy-3'-methoxyphenyl)-decan-3-ol] | > 100 µM | 82.5 µM | 82.2 µM | > 100 µM |  |  |  | 
9 | CCCCCC(CC(=O)CCc1ccc(O)c(OC)c1)SC (stereo not drawn) [M10, 5-methylthio-1-(4'-hydroxy-3'-methoxyphenyl)-decan-3-one] | > 100 µM | 60.6 µM | 78.2 µM | > 100 µM |  |  |  | 
10 | CCCCCCCC(=O)CCc1ccc(O)c(OC)c1 [M11, 1-(4'-hydroxy-3'-methoxyphenyl)-decan-3-one] | > 100 µM | 66.5 µM | 84 µM | > 100 µM |  |  |  | 
11 | CCCCCC(CC(O)CCc1ccc(O)c(OC)c1)SC (stereo not drawn) [M12, 5-methylthio-1-(4'-Hydroxy-3'-methoxyphenyl)-decan-3-ol] | > 100 µM | 69.9 µM | > 100 µM | > 100 µM |  |  |  | 
12 | CCCCCC(CC(=O)CCc1ccc(O)c(OC)c1)SCC(NC(=O)CCC(N)C(=O)O)C(=O)NCC(=O)O (stereo not drawn) [M13, 5-glutathiol-[6]-shogaol] | 57.5 µM | 47.8 µM | 45.5 µM | 75.5 µM | Significant apoptosis | significantly higher levels of apoptosis | Significant apoptosis | 
13 | CCCCC[C@@H](CC(=O)CCc1ccc(O)c(OC)c1)SC[C@H](NC(=O)CC[C@H](N)C(=O)O)C(=O)NCC(=O)O [M13-1] |  | 74.4 µM | 71.2 µM |  |  | higher level of apoptosis |  | 
14 | CCCCC[C@H](CC(=O)CCc1ccc(O)c(OC)c1)SC[C@H](NC(=O)CC[C@H](N)C(=O)O)C(=O)NCC(=O)O [M13-2] |  | 63.8 µM | 54.9 µM |  |  | higher level of apoptosis |  | 
15 | CCCCC/C=C/C(=O)CCc1ccc(O)c(OC)c1 [[6]-shogaol] | 36.6 µM | 17.9 µM | 18.2 µM | 43.9 µM | significantly superior to that of both M2 and M13 | significantly higher levels of apoptosis | significantly superior to that of both M2 and M13 | 
